In patent US5618785A, “Peptide inhibitors of selectin binding” (Centocor, Inc., priority 1995, dated 1997):
Residues, ends and D or L forms follow the SMILES beside them.

System: P-selectin
Experiment: Inhibition of binding of human neutrophils to P-selectin (neutrophil adhesion to purified P-selectin immobilized on plastic wells)
Type: cell-based
Conditions: P-selectin isolated from human platelets, plated at 5 micrograms/mL, myeloperoxidase readout, peptides tested 1.0 mM to 0.001 mM
Source text: Peptides can be screened for their ability to inhibit adhesion to cells, for example, neutrophil adhesion to purified P-selectin immobilized on plastic wells, using the assay described by Geng, et al., Nature 343, 757-760 (1990).
Human neutrophils are isolated from heparinized whole blood by density gradient centrifugation on Mono-Poly resolving media, Flow Laboratories. Neutrophil suspensions are greater than 98% pure and greater than 95% viable by trypan blue exclusion. For adhesion assays, neutrophils are suspended at a concentration of 2×10^6 cells/mL in Hanks' balanced salt solution containing 1.26 mM Ca^2+ and 0.81 mM Mg^2+ (HBSS, Gibco) with 0.05 mg/mL human serum albumin (HBSS/HSA). Adhesion assays are conducted in triplicate in 96-well microtiter plates, Corning, incubated at 4° C. overnight with 50 microliters of various protein solutions.
P-selectin is isolated from human platelet lysates by immunoaffinity chromatography on antibody S12-Sepharose™ and ion-exchange chromatography on a Mono-Q™ column (FLPC, Pharmacia Fine Chemicals), as follows.
Outdated human platelet packs (100 units) obtained from a blood bank and stored at 4° C. are pooled, adjusted to 5 mM EDTA at pH 7.5, centrifuged at 4,000 rpm for 30 minutes in 1 liter bottles, then washed three times with 1 liter of 0.1M NaCl, 20 mM Tris pH 7.5 (TBS), 5 mM EDTA, 5 mM benzamidine.
The pellets are then resuspended in a minimum amount of wash buffer and made 1 mM in DIFP, then frozen in 50 mL screwtop tubes at -80° C. The frozen platelets are thawed and resuspended in 50 mL TBS, 5 mM benzamidine, 5 mM EDTA pH 7.5, […]. The suspension is frozen and thawed two times in a dry ice-acetone bath using a 600 mL lyophilizing flask, then homogenized in a glass/teflon mortar and pestle and made 1 mM in DIFP. The NaCl concentration is adjusted to 0.5M with a stock solution of 4M NaCl. After stirring the suspension at 4° C., it is centrifuged in polycarbonate tubes at 33,000 rpm for 60 minutes at 4° C. The supernatant (0.5M NaCl wash) is removed and saved; this supernatant contains the soluble form of P-selectin. Care is taken not to remove the top part of the pellet with the supernatant. The pellets are then homogenized in extraction buffer (TBS, 5 mM benzamidine, 5 mM EDTA, pH 7.5, 100 μM leupeptin, 2% Triton X-100). After centrifugation at 19,500 rpm for 25 minutes at 4° C., the supernatant is removed. The extraction procedure is repeated with the pellet and the supernatant is combined with the first supernatant. The combined extracts, which contain the membrane form of P-selectin, are adjusted to 0.5M NaCl.
The soluble fraction (0.5M NaCl wash) and the membrane extract (also adjusted to 0.5M NaCl) are absorbed with separate pools of the monoclonal antibody S12 (directed to P-selectin) previously coupled to Affigel (Biorad) at 5 mg/mL for 2 hours at 4° C. After letting the resins settle, the supernatants are removed. The S12 Affigel containing bound GMP-140 is then loaded into a column and washed overnight at 4° C. with 400 mL of 0.5M NaCl, 20 mM Tris pH 7.5, 0.01% Lubrol PX.
Bound P-selectin is eluted from the S12 Affigel with 100 mL of 80% ethylene glycol, 1 mM MES pH 6.0, 0.01% Lubrol PX. Peak fractions with absorbance at 280 nm are pooled. Eluates are dialyzed against TBS with 0.05% Lubrol, then applied to a Mono Q column (FPLC from Pharmacia). The concentrated protein is step eluted with 2M NaCl, 20 mM Tris pH 7.5 (plus 0.05% Lubrol PX for the membrane fraction). Peak fractions are dialyzed into TBS pH 7.5 (plus 0.05% Lubrol PX for the membrane fraction).
P-selectin is plated at 5 micrograms/mL and the control proteins: human serum albumin (Alb), platelet glycoprotein IIb/IIIa (IIb), von Willebrand factor (vWF), fibrinogen (FIB), thrombomodulin (TM), gelatin (GEL) or human serum (HS), are added at 50 micrograms/mL. […]

SMILES	IC50 [µM]
CC[C@H](C)[C@H](NC(=O)[C@H](C)NC(=O)[C@@H](NC(=O)[C@H](Cc1ccccc1)NC(=O)[C@H](CCSC)NC(=O)[C@@H](NC(=O)[C@@H](N)Cc1ccc(O)cc1)[C@@H](C)O)C(C)C)C(=O)N[C@@H](CCC(N)=O)C(N)=O [YTMFVAIQ--NH2, Tyrosyl-threonyl-methionyl-phenylalanyl-valyl-alanyl-isoleucyl-glutamine-amide] (H-YTMFVAIQ-NH2)	114
CC(=O)N[C@@H](Cc1ccc(O)cc1)C(=O)N[C@H](C(=O)N[C@@H](CCCCN)C(=O)N[C@@H](CC(C)C)C(=O)N[C@H](C(=O)N[C@@H](Cc1ccccc1)C(=O)N[C@@H](CCC(N)=O)C(=O)N[C@@H](CCC(N)=O)C(N)=O)C(C)C)[C@@H](C)O [Ac--YTKLVFEQ--NH2, Acetyl-tyrosyl-threonyl-lysyl-leucyl-valyl-phenylalanyl-glutaminyl-glutamine-amide] (Ac-YTKLVFQQ-NH2)	99
CSCC[C@H](NC(=O)[C@@H](NC(=O)[C@@H](N)Cc1ccc(O)cc1)[C@@H](C)O)C(=O)N[C@@H](CC(C)C)C(=O)N[C@H](C(=O)N[C@@H](C)C(=O)N[C@@H](Cc1ccccc1)C(=O)N[C@@H](CCC(N)=O)C(N)=O)C(C)C [YTMLVAFQ--NH2, Tyrosyl-threonyl-methionyl-leucyl-valyl-alanyl-phenylalanyl-glutamine-amide] (H-YTMLVAFQ-NH2)	93
CC[C@H](C)[C@H](NC(=O)[C@H](C)NC(=O)[C@@H](NC(=O)[C@H](CCc1ccccc1)NC(=O)[C@H](CCCCN)NC(=O)[C@@H](NC(=O)[C@@H](N)Cc1ccc(O)cc1)[C@@H](C)O)C(C)C)C(=O)N[C@@H](CCC(N)=O)C(N)=O [YTK--(homo-F)--VAIQ--NH2, Tyrosyl-threonyl-lysyl-(homo-phenylalanyl)-valyl-alanyl-isoleucyl-glutamine-amide] (HELM PEPTIDE1{Y.T.K.[O=C([C@H](CCc1ccccc1)N[*:1])[*:2]].V.A.I.Q.[am]}$$$$V2.0)	52
CC[C@H](C)[C@H](NC(=O)[C@H](Cc1c[nH]cn1)NC(=O)[C@@H](NC(=O)[C@H](CC(C)C)NC(=O)[C@H](CCCCN)NC(=O)[C@@H](NC(=O)[C@H](Cc1ccc(O)cc1)NC(C)=O)[C@@H](C)O)C(C)C)C(=O)N[C@@H](CCC(N)=O)C(N)=O [Ac--YTKLVHIQ--NH2, Acetyl-tyrosyl-threonyl-lysyl-leucyl-valyl-histidyl-isoleucyl-glutamine-amide] (Ac-YTKLVHIQ-NH2)	81
CC[C@H](C)[C@H](NC(=O)[C@H](C)NC(=O)[C@@H](NC(=O)[C@H](Cc1ccccc1)NC(=O)[C@H](CCCCN)NC(=O)[C@@H](NC(=O)[C@@H](N)Cc1ccc(O)cc1)[C@@H](C)O)C(C)C)C(=O)N[C@@H](CCC(N)=O)C(N)=O [YTKFVAIQ--NH2, Tyrosyl-threonyl-lysyl-phenylalanyl-valyl-alanyl-isoleucyl-glutamine-amide] (H-YTKFVAIQ-NH2)	21
CC[C@H](C)[C@H](NC(=O)[C@H](Cc1ccccc1)NC(=O)[C@@H](NC(=O)[C@H](CC(C)C)NC(=O)[C@H](CCCCN)NC(=O)[C@@H](NC(=O)[C@@H](N)Cc1ccc(O)cc1)[C@@H](C)O)C(C)C)C(=O)N[C@@H](CCC(N)=O)C(N)=O [YTKLVFIQ--NH2, Tyrosyl-threonyl-lysyl-leucyl-valyl-phenylalanyl-isoleucyl-glutamine-amide] (H-YTKLVFIQ-NH2)	22
CC[C@H](C)[C@H](NC(=O)[C@@H](CCc1ccccc1)NC(=O)[C@@H](NC(=O)[C@H](CC(C)C)NC(=O)[C@H](CCCCN)NC(=O)[C@@H](NC(=O)[C@H](Cc1ccc(O)cc1)NC(C)=O)[C@@H](C)O)C(C)C)C(=O)N[C@@H](CCC(N)=O)C(N)=O [Ac--YTKLV--(D-homo-F)--IQ--NH2, Acetyl-tyrosyl-threonyl-lysyl-leucyl-valyl-(D-homo-phenylalanyl)-isoleucyl- glutamine-amide] (HELM PEPTIDE1{[ac].Y.T.K.L.V.[O=C([C@@H](CCc1ccccc1)N[*:1])[*:2]].I.Q.[am]}$$$$V2.0)	26
CC[C@H](C)[C@H](NC(=O)[C@H](Cc1ccc(O)cc1)NC(=O)[C@@H](NC(=O)[C@H](CC(C)C)NC(=O)[C@H](Cc1c[nH]cn1)NC(=O)CNC(=O)[C@H](CCCNC(=N)N)NC(C)=O)C(C)C)C(=O)N[C@@H](CCC(N)=O)C(N)=O [Ac--RGHLVYIQ--NH2, Acetyl-arginyl-glycyl-histidyl-leucyl-valyl-tyrosyl-isoleucyl-glutamine-amide] (Ac-RGHLVYIQ-NH2)	428
CC[C@@H](C)[C@@H](NC(=O)[C@@H](Cc1ccccc1)NC(=O)[C@H](NC(=O)[C@@H](CC(C)C)NC(=O)[C@@H](Cc1c[nH]cn1)NC(=O)CNC(=O)[C@H](N)CCCNC(=N)N)C(C)C)C(=O)N[C@H](CCC(N)=O)C(N)=O [rGhlvfiq--NH2, D-arginyl-glycyl-D-histidyl-D-leucyl-D-valyl-D-phenylalanyl-D-isoleucyl-D-glutamine-amide] (HELM PEPTIDE1{[dR].G.[dH].[dL].[dV].[dF].[dI].[dQ].[am]}$$$$V2.0)	270
CC[C@H](C)[C@H](NC(=O)[C@H](Cc1ccccc1)NC(=O)[C@@H](NC(=O)[C@H](CC(C)C)NC(=O)[C@H](CCCCN)NC(=O)[C@@H](NC(=O)[C@H](Cc1ccc(O)cc1)NC(C)=O)[C@@H](C)O)C(C)C)C(=O)N[C@@H](CCC(N)=O)C(N)=O [Ac--YTKLVFIQ--NH2, Acetyl-tyrosyl-threonyl-lysyl-leucyl-valyl-phenylalanyl-isoleucyl-glutamine-amide] (Ac-YTKLVFIQ-NH2)	149
CC[C@H](C)[C@H](NC(=O)[C@H](C)NC(=O)[C@@H](NC(=O)[C@H](Cc1ccc(O)cc1)NC(=O)[C@H](CCCCN)NC(=O)[C@@H](NC(=O)[C@@H](N)Cc1ccc(O)cc1)[C@@H](C)O)C(C)C)C(=O)N[C@@H](CCC(N)=O)C(N)=O [YTKYVAIQ--NH2, Tyrosyl-threonyl-lysyl-tyrosyl-valyl-alanyl-isoleucyl-glutamine-amide] (H-YTKYVAIQ-NH2)	64
